Data set [1] concerns the target T1, Neuronal acetylcholine receptor subunit alpha-7 (Homo sapiens, UniProt P36544). Briefly: Silent agonist activity at human alpha7 nAChR expressed in Xenopus laevis oocytes assessed as induction of PNU-120596-stimulated peak current response at 30 uM administered for 12 secs followed by washout period for 181 secs by voltage clamp technique relative to acetylcholine. The format is cell-based.

The target in data set [2] is T1, Neuronal acetylcholine receptor subunit alpha-7. The data set can be described thus: Silent agonist activity at human alpha7 nAChR expressed in Xenopus laevis oocytes assessed as induction of PNU-120596-stimulated peak current response at 10 uM administered for 12 secs followed by washout period for 181 secs by voltage clamp technique relative to acetylcholine. Type of data set: cell-based.

Data set [3] has the same target. Briefly: Silent agonist activity at human alpha7 nAChR expressed in Xenopus laevis oocytes assessed as induction of PNU-120596-stimulated peak current response at 100 uM administered for 12 secs followed by washout period for 181 secs by voltage clamp technique relative to acetylcholine. Type of data set: cell-based.
Data set [4] shares this target. The data set can be described thus: Antagonist activity at human alpha7 nAChR expressed in Xenopus laevis oocytes assessed as inhibition of acetylcholine-induced current response administered for 12 secs followed by washout period for 181 secs by voltage clamp technique. The format is cell-based.
The target is the same in data set [5]. Briefly: Partial agonist activity at human alpha7 nAChR expressed in Xenopus laevis oocytes assessed as induction of maximum current response at 100 uM administered for 12 secs followed by washout period for 181 secs by voltage clamp technique relative to acetylcholine. Type of data set: cell-based.
The target is the same in data set [6]. The data set can be described thus: Antagonist activity at human alpha7 nAChR expressed in Xenopus laevis oocytes assessed as inhibition of acetylcholine-induced current response at 300 uM administered for 12 secs followed by washout period for 181 secs by voltage clamp technique relative to acetylcholine. The format is cell-based.
The target is the same in data set [7]. Briefly: Partial agonist activity at human alpha7 nAChR expressed in Xenopus laevis oocytes assessed as induction of maximum current response at 10 to 300 uM administered for 12 secs followed by washout period for 181 secs by voltage clamp technique. Type of data set: cell-based.
Data set [8] shares this target. Briefly: Partial agonist activity at human alpha7 nAChR expressed in Xenopus laevis oocytes assessed as induction of maximum current response administered for 12 secs followed by washout period for 181 secs by voltage clamp technique. The format is cell-based.
Data set [9] in a line: Hydrolytic stability of compound in water at 8.4 mM up to 60 days by [1H]-NMR spectroscopy. Type of data set: physicochemical. Particulars: buffer, 1440 h, 8400 µM.
The nature of data set [10]: Hydrolytic stability of compound in Ringers-D2O buffer at 8.4 mM at pH 7.2 up to 60 days by [1H]-NMR spectroscopy. Type of data set: physicochemical. The note with it: pH 7.2, 1440 h, 8400 µM.
For data set [11], the target named is T1, Neuronal acetylcholine receptor subunit alpha-7. The data set can be described thus: Induction of human alpha7 nAChR desensitization expressed in Xenopus laevis oocytes at 100 uM pretreated for 30 secs followed by PNU-120596 administered for 10 secs by voltage clamp technique relative to acetylcholine. Type of data set: cell-based.
The target of data set [12] is T2, Neuronal acetylcholine receptor; alpha4/beta2 (Homo sapiens, UniProt P17787+P43681). The data set can be described thus: Antagonist activity at human alpha4beta2 nAChR expressed in Xenopus laevis oocytes assessed as inhibition of acetylcholine-induced current response administered for 6 secs followed by washout period for 241 secs by voltage clamp technique. The format is cell-based.

Data set [13] deals with T3, Neuronal acetylcholine receptor; alpha3/beta2 (Homo sapiens) (UniProt P17787+P32297). The data set can be described thus: Antagonist activity at human […] alpha3beta2 nAChR expressed in Xenopus laevis oocytes assessed as inhibition of acetylcholine-induced current response at 30 uM administered for 6 secs followed by washout period for 241 secs by in presence of acetylcholine voltage clamp technique. Type of data set: cell-based.

Data set [14] concerns the target T3, Neuronal acetylcholine receptor; alpha3/beta2 (Homo sapiens). Briefly: Antagonist activity at human ganglionic alpha3beta2 nAChR expressed in Xenopus laevis oocytes assessed as inhibition of acetylcholine-induced current response at 100 uM administered for 6 secs followed by washout period for 241 secs by in presence of acetylcholine voltage clamp technique. Type of data set: cell-based.

The target in data set [15] is T2, Neuronal acetylcholine receptor; alpha4/beta2. Briefly: Agonist activity at human alpha4beta2 nAChR expressed in Xenopus laevis oocytes assessed as induction of current response administered for 6 secs followed by washout period for 241 secs by voltage clamp technique. Type of data set: cell-based.
The target of data set [16] is T3, Neuronal acetylcholine receptor; alpha3/beta2 (Homo sapiens). Briefly: Agonist activity at human […] alpha3beta2 nAChR expressed in Xenopus laevis oocytes assessed as induction of current response at 30 uM administered for 6 secs followed by washout period for 241 secs by in presence of acetylcholine voltage clamp technique. The format is cell-based.
For data set [17] the target is unchanged. Briefly: Agonist activity at human ganglionic alpha3beta2 nAChR expressed in Xenopus laevis oocytes assessed as induction of current response at 30 uM administered for 6 secs followed by washout period for 241 secs by in presence of acetylcholine voltage clamp technique. The format is cell-based.

The source made the active and inactive calls. The rule behind the calls is not given here. Bounds are passed on as bounds.

The values below come from ChEMBL document CHEMBL4017516, “Sulfonium as a Surrogate for Ammonium: A New α7 Nicotinic Acetylcholine Receptor Partial Agonist with Desensitizing Activity” (J Med Chem, 2017).

In general, IC50 refers to the midpoint of a concentration-inhibition curve. The inhibition is how much of the control response was suppressed. The EC50 is the midpoint of the concentration-response curve.

T1 sequence (P36544 whole entry): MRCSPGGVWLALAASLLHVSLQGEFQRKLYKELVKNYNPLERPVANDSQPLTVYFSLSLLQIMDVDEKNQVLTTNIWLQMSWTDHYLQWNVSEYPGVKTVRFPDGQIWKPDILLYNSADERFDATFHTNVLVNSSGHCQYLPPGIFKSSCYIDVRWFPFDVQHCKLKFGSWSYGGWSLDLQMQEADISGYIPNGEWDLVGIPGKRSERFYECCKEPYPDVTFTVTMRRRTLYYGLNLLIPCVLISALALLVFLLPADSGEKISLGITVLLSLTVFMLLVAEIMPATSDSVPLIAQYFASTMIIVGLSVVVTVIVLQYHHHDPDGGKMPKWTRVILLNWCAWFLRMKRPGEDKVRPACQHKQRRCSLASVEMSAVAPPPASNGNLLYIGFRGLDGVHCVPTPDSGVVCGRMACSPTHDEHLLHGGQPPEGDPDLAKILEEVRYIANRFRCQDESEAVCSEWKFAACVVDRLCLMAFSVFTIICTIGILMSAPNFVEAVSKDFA
T2 sequence (P17787 whole entry): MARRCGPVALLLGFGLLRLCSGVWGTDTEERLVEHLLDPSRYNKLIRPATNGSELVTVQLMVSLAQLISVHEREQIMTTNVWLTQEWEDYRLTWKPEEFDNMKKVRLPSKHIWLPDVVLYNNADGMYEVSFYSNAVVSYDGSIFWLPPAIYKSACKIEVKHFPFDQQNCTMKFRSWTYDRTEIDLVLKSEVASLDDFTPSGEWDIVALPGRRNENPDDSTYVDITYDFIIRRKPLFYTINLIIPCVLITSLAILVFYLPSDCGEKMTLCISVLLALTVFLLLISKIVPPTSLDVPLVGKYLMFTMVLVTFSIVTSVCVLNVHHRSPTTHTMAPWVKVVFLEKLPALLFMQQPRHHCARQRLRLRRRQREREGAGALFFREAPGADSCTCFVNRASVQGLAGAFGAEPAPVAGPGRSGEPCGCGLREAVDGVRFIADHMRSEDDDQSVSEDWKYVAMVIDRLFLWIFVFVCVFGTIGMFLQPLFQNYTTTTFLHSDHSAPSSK
T2 sequence (P43681 whole entry): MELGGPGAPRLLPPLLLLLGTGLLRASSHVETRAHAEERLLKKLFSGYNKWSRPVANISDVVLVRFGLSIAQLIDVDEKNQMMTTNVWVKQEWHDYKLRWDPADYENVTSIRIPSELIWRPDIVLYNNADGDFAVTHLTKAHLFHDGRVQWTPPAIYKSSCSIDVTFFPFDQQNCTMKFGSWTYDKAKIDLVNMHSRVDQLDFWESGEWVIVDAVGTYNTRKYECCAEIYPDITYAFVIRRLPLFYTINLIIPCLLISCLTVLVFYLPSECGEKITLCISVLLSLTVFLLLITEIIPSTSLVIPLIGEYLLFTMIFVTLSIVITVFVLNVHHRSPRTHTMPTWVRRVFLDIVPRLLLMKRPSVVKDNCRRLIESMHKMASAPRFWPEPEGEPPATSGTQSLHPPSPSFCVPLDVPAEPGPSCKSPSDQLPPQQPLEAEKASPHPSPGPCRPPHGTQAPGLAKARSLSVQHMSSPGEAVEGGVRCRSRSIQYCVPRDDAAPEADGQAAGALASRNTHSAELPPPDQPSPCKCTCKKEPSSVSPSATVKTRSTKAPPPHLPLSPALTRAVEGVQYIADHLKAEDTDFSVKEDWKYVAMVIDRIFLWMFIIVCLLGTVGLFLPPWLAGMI

For `CC[N+]1(CC)CCN(c2ccccc2)CC1`, the outcome in data set [1], in [2] and in data set [3] was Active. For the same compound, the IC50 in data set [4] was determined as 55 µM. For the same compound, the fold change (FC) in data set [5] stood at 0.47.

`CCN1CCN(c2ccccc2)CC1`: the outcome in data set [1], in data set [2], in data set [3] and in data set [7] was inactive. For the same compound, the inhibition in data set [6] was below 20%. In [5], the fold change (FC) was determined as 0.

`CC[N+]1(c2ccccc2)CCSCC1`: the outcome in data set [1], in data set [2], in data set [3] and in [8] was inactive.

Take `CC[S+]1CCN(c2ccccc2)CC1.O=S(=O)([O-])C(F)(F)F`: the fold change (FC) came out at 3 in data set [1], 5 in [2], 25 in [3] and 0.07 in data set [5]. For the same compound, the IC50 was found to be 73 µM in data set [4] and 51 µM in data set [12]. Moreover, the Stability result in data set [9] and in [10] was “Stable” in each case. Moreover, the EC50 in [8] was 40 µM. Besides, the outcome in [11] was Active. Besides, the inhibition entry in [13] and in data set [14] was “Active” each time. Moreover, the result in data set [15], in data set [16] and in data set [17] was inactive.
